The supplement of paper PMC10307832

Columns and labels:
Test in all cases: relative viability (nuclei count vs DMSO), 5 days (fraction); higher = more cells survive
Motesanib + AZD7762 = compound: CC1(C)CNc2cc(NC(=O)c3cccnc3NCc3ccncc3)ccc21 [Motesanib] + NC(=O)Nc1cc(-c2cccc(F)c2)sc1C(=O)N[C@H]1CCCNC1 [AZD7762] (partner 0.2 µM)
Method in brief: (§1)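 Values are medians from duplicate plates. Each reflects relative viability, defined as the nuclei count of treated wells over that of vehicle wells. Lung cancer cell lines in 1536-well plates were pin-tool dosed one day after seeding with one drug alone or with a fixed anchor-drug dose plus five library-drug doses (not always all listed) in √10 steps, then fixed, stained and imaged at 4× after 5 days.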

[1] = compound: C[C@@]1(C(=O)Nc2ccc(F)nc2)CCCN1c1nc(Nc2cc(C3CC3)n[nH]2)c2cccn2n1 + C[C@@H](Oc1cc(-c2cnn(C3CCNCC3)c2)cnc1N)c1c(Cl)ccc(F)c1Cl [Crizotinib] (partner 1 µM)
Method in brief: as §1

[2] = compound: C[C@@]1(C(=O)Nc2ccc(F)nc2)CCCN1c1nc(Nc2cc(C3CC3)n[nH]2)c2cccn2n1 + COc1cc2c(Oc3ccc(NC(=O)C4(C(=O)Nc5ccc(F)cc5)CC4)cc3F)ccnc2cc1OCCCN1CCOCC1 [Foretinib] (partner 0.25 µM)
Method in brief: as §1

Motesanib + Olaparib = compound: CC1(C)CNc2cc(NC(=O)c3cccnc3NCc3ccncc3)ccc21 [Motesanib] + O=C(c1cc(Cc2n[nH]c(=O)c3ccccc23)ccc1F)N1CCN(C(=O)C2CC2)CC1 [Olaparib] (partner 8 µM)
Method in brief: as §1

Cell Line: NCI-H2087
- relative viability (Motesanib + AZD7762; first compound 0.1 µM): 1.41
- relative viability (Motesanib + AZD7762; first compound 0.3162 µM): 1.13
- relative viability (Motesanib + AZD7762; first compound 1 µM): 1.55
- relative viability ([1]; first compound 0.04 µM): 0.88
- relative viability ([1]; first compound 0.1265 µM): 1.06
- relative viability ([1]; first compound 0.4 µM): 0.699
- relative viability ([1]; first compound 1.265 µM): 0.613
- relative viability ([2]; first compound 0.04 µM): 0.812
- relative viability ([2]; first compound 0.1265 µM): 0.801
- relative viability ([2]; first compound 0.4 µM): 0.705
- relative viability ([2]; first compound 1.265 µM): 0.72
- relative viability (Motesanib + Olaparib; first compound 0.1 µM): 0.663
- relative viability (Motesanib + Olaparib; first compound 0.3162 µM): 0.703
- relative viability (Motesanib + Olaparib; first compound 1 µM): 0.747

Cell Line: NCI-H2126
- relative viability (Motesanib + AZD7762; first compound 0.01 µM): 1.04
- relative viability (Motesanib + AZD7762; first compound 0.03162 µM): 1.05
- relative viability (Motesanib + AZD7762; first compound 0.1 µM): 0.999
- relative viability (Motesanib + AZD7762; first compound 0.3162 µM): 1.03
- relative viability (Motesanib + AZD7762; first compound 1 µM): 1.09
- relative viability ([1]; first compound 0.04 µM): 0.923
- relative viability ([1]; first compound 0.1265 µM): 0.845
- relative viability ([1]; first compound 0.4 µM): 0.672
- relative viability ([1]; first compound 1.265 µM): 0.98
- relative viability ([2]; first compound 0.04 µM): 0.885
- relative viability ([2]; first compound 0.1265 µM): 0.661
- relative viability ([2]; first compound 0.4 µM): 0.485
- relative viability ([2]; first compound 1.265 µM): 0.865
- relative viability (Motesanib + Olaparib; first compound 0.01 µM): 0.892
- relative viability (Motesanib + Olaparib; first compound 0.03162 µM): 0.885
- relative viability (Motesanib + Olaparib; first compound 0.1 µM): 0.899
- relative viability (Motesanib + Olaparib; first compound 0.3162 µM): 0.892
- relative viability (Motesanib + Olaparib; first compound 1 µM): 1

Cell Line: NCI-H2170
- relative viability (Motesanib + AZD7762; first compound 0.01 µM): 0.871
- relative viability (Motesanib + AZD7762; first compound 0.03162 µM): 0.865
- relative viability (Motesanib + AZD7762; first compound 0.1 µM): 0.82
- relative viability (Motesanib + AZD7762; first compound 0.3162 µM): 0.75
- relative viability (Motesanib + AZD7762; first compound 1 µM): 0.755
- relative viability ([1]; first compound 0.04 µM): 1.09
- relative viability ([1]; first compound 0.1265 µM): 1.11
- relative viability ([1]; first compound 0.4 µM): 1.03
- relative viability ([1]; first compound 1.265 µM): 1.27
- relative viability ([2]; first compound 0.04 µM): 0.932
- relative viability ([2]; first compound 0.1265 µM): 1.02
- relative viability ([2]; first compound 0.4 µM): 0.973
- relative viability ([2]; first compound 1.265 µM): 1.08
- relative viability (Motesanib + Olaparib; first compound 0.01 µM): 0.694
- relative viability (Motesanib + Olaparib; first compound 0.03162 µM): 0.656
- relative viability (Motesanib + Olaparib; first compound 0.1 µM): 0.599
- relative viability (Motesanib + Olaparib; first compound 0.3162 µM): 0.61
- relative viability (Motesanib + Olaparib; first compound 1 µM): 0.684

Cell Line: NCI-H2347
- relative viability (Motesanib + AZD7762; first compound 0.01 µM): 0.738
- relative viability (Motesanib + AZD7762; first compound 0.03162 µM): 0.825
- relative viability (Motesanib + AZD7762; first compound 0.1 µM): 0.749
- relative viability (Motesanib + AZD7762; first compound 0.3162 µM): 0.674
- relative viability (Motesanib + AZD7762; first compound 1 µM): 0.712
- relative viability ([1]; first compound 0.04 µM): 0.706
- relative viability ([1]; first compound 0.1265 µM): 0.75
- relative viability ([1]; first compound 0.4 µM): 0.629
- relative viability ([1]; first compound 1.265 µM): 0.569
- relative viability ([2]; first compound 0.04 µM): 1.32
- relative viability ([2]; first compound 0.1265 µM): 0.818
- relative viability ([2]; first compound 0.4 µM): 1.02
- relative viability ([2]; first compound 1.265 µM): 0.834
- relative viability (Motesanib + Olaparib; first compound 0.01 µM): 0.536
- relative viability (Motesanib + Olaparib; first compound 0.03162 µM): 0.507
- relative viability (Motesanib + Olaparib; first compound 0.1 µM): 0.559
- relative viability (Motesanib + Olaparib; first compound 0.3162 µM): 0.537
- relative viability (Motesanib + Olaparib; first compound 1 µM): 0.596

Cell Line: NCI-H2405
- relative viability (Motesanib + AZD7762; first compound 0.01 µM): 0.629
- relative viability (Motesanib + AZD7762; first compound 0.03162 µM): 0.632
- relative viability (Motesanib + AZD7762; first compound 0.1 µM): 0.691
- relative viability (Motesanib + AZD7762; first compound 0.3162 µM): 0.812
- relative viability (Motesanib + AZD7762; first compound 1 µM): 0.765
- relative viability ([1]; first compound 0.04 µM): 0.862
- relative viability ([1]; first compound 0.1265 µM): 0.759
- relative viability ([1]; first compound 0.4 µM): 0.649
- relative viability ([1]; first compound 1.265 µM): 0.889
- relative viability ([2]; first compound 0.04 µM): 0.866
- relative viability ([2]; first compound 0.1265 µM): 0.818
- relative viability ([2]; first compound 0.4 µM): 0.742
- relative viability ([2]; first compound 1.265 µM): 0.77
- relative viability (Motesanib + Olaparib; first compound 0.01 µM): 0.741
- relative viability (Motesanib + Olaparib; first compound 0.03162 µM): 0.808
- relative viability (Motesanib + Olaparib; first compound 0.1 µM): 0.859
- relative viability (Motesanib + Olaparib; first compound 0.3162 µM): 0.837
- relative viability (Motesanib + Olaparib; first compound 1 µM): 0.832

Cell Line: NCI-H3122
- relative viability (Motesanib + AZD7762; first compound 0.01 µM): 0.972
- relative viability (Motesanib + AZD7762; first compound 0.03162 µM): 1.02
- relative viability (Motesanib + AZD7762; first compound 0.1 µM): 0.945
- relative viability (Motesanib + AZD7762; first compound 0.3162 µM): 1.06
- relative viability (Motesanib + AZD7762; first compound 1 µM): 1.15
- relative viability ([1]; first compound 0.04 µM): 0.212
- relative viability ([1]; first compound 0.1265 µM): 0.2
- relative viability ([1]; first compound 0.4 µM): 0.182
- relative viability ([1]; first compound 1.265 µM): 0.222
- relative viability ([2]; first compound 0.04 µM): 0.978
- relative viability ([2]; first compound 0.1265 µM): 0.937
- relative viability ([2]; first compound 0.4 µM): 0.942
- relative viability ([2]; first compound 1.265 µM): 0.893
- relative viability (Motesanib + Olaparib; first compound 0.01 µM): 0.581
- relative viability (Motesanib + Olaparib; first compound 0.03162 µM): 0.644
- relative viability (Motesanib + Olaparib; first compound 0.1 µM): 0.644
- relative viability (Motesanib + Olaparib; first compound 0.3162 µM): 0.632
- relative viability (Motesanib + Olaparib; first compound 1 µM): 0.683

Cell Line: PC-3 [JPC-3]
- relative viability (Motesanib + AZD7762; first compound 0.01 µM): 0.779
- relative viability (Motesanib + AZD7762; first compound 0.03162 µM): 0.751
- relative viability (Motesanib + AZD7762; first compound 0.1 µM): 0.727
- relative viability (Motesanib + AZD7762; first compound 0.3162 µM): 0.731
- relative viability (Motesanib + AZD7762; first compound 1 µM): 0.683
- relative viability ([1]; first compound 0.04 µM): 1.03
- relative viability ([1]; first compound 0.1265 µM): 0.921
- relative viability ([1]; first compound 0.4 µM): 0.905
- relative viability ([1]; first compound 1.265 µM): 1.01
- relative viability ([2]; first compound 0.04 µM): 1.08
- relative viability ([2]; first compound 0.1265 µM): 1.02
- relative viability ([2]; first compound 0.4 µM): 0.959
- relative viability ([2]; first compound 1.265 µM): 1.34
- relative viability (Motesanib + Olaparib; first compound 0.01 µM): 1.14
- relative viability (Motesanib + Olaparib; first compound 0.03162 µM): 1.18
- relative viability (Motesanib + Olaparib; first compound 0.1 µM): 1.2
- relative viability (Motesanib + Olaparib; first compound 0.3162 µM): 1.18
- relative viability (Motesanib + Olaparib; first compound 1 µM): 1.16

Cell Line: PC-14
- relative viability (Motesanib + AZD7762; first compound 0.01 µM): 0.306
- relative viability (Motesanib + AZD7762; first compound 0.03162 µM): 0.296
- relative viability (Motesanib + AZD7762; first compound 0.1 µM): 0.286
- relative viability (Motesanib + AZD7762; first compound 0.3162 µM): 0.41
- relative viability (Motesanib + AZD7762; first compound 1 µM): 0.329
- relative viability ([1]; first compound 0.04 µM): 0.901
- relative viability ([1]; first compound 0.1265 µM): 0.806
- relative viability ([1]; first compound 0.4 µM): 0.758
- relative viability ([1]; first compound 1.265 µM): 0.763
- relative viability ([2]; first compound 0.04 µM): 1.04
- relative viability ([2]; first compound 0.1265 µM): 0.888
- relative viability ([2]; first compound 0.4 µM): 0.813
- relative viability ([2]; first compound 1.265 µM): 0.93
- relative viability (Motesanib + Olaparib; first compound 0.01 µM): 0.224
- relative viability (Motesanib + Olaparib; first compound 0.03162 µM): 0.32
- relative viability (Motesanib + Olaparib; first compound 0.1 µM): 0.322
- relative viability (Motesanib + Olaparib; first compound 0.3162 µM): 0.258
- relative viability (Motesanib + Olaparib; first compound 1 µM): 0.204

Cell Line: RERF-LC-KJ
- relative viability (Motesanib + AZD7762; first compound 0.01 µM): 0.9
- relative viability (Motesanib + AZD7762; first compound 0.03162 µM): 0.873
- relative viability (Motesanib + AZD7762; first compound 0.1 µM): 1.06
- relative viability (Motesanib + AZD7762; first compound 0.3162 µM): 1.03
- relative viability (Motesanib + AZD7762; first compound 1 µM): 0.813
- relative viability ([1]; first compound 0.04 µM): 0.874
- relative viability ([1]; first compound 0.1265 µM): 0.733
- relative viability ([1]; first compound 0.4 µM): 0.732
- relative viability ([1]; first compound 1.265 µM): 0.801
- relative viability ([2]; first compound 0.04 µM): 0.815
- relative viability ([2]; first compound 0.1265 µM): 0.777
- relative viability ([2]; first compound 0.4 µM): 0.659
- relative viability ([2]; first compound 1.265 µM): 0.714
- relative viability (Motesanib + Olaparib; first compound 0.01 µM): 0.981
- relative viability (Motesanib + Olaparib; first compound 0.03162 µM): 0.991
- relative viability (Motesanib + Olaparib; first compound 0.1 µM): 0.896
- relative viability (Motesanib + Olaparib; first compound 0.3162 µM): 1.08
- relative viability (Motesanib + Olaparib; first compound 1 µM): 1.04
